Earlier results as cited in patent US12410474B2, “Methods, kits, and devices for diagnosing, prognosing, and treating psychiatric disorders in a patient” (Northwestern University, priority 2014, dated 2025).

Columns and labels:
[1] = test system: HTR2C Ser23 and Cys23 isoreceptors; details: after prolonged pre-exposure to serotonin
HTR2C = molecular target: T1, HTR2C (Homo sapiens, UniProt P28335)
T1 sequence (P28335 33-458): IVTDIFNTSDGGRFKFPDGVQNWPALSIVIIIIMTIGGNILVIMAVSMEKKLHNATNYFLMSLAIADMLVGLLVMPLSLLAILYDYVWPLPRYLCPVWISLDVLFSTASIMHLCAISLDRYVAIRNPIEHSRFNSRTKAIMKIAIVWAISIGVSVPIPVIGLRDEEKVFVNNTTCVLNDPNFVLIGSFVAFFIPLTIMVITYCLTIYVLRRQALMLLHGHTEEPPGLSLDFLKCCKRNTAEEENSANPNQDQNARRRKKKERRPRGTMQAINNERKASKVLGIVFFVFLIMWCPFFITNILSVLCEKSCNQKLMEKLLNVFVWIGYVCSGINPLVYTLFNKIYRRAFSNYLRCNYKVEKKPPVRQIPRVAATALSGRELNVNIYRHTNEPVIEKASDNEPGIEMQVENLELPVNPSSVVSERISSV

HTR2A = HTR2A (Homo sapiens, UniProt P28223)
Chain of HTR2A (P28223 whole entry): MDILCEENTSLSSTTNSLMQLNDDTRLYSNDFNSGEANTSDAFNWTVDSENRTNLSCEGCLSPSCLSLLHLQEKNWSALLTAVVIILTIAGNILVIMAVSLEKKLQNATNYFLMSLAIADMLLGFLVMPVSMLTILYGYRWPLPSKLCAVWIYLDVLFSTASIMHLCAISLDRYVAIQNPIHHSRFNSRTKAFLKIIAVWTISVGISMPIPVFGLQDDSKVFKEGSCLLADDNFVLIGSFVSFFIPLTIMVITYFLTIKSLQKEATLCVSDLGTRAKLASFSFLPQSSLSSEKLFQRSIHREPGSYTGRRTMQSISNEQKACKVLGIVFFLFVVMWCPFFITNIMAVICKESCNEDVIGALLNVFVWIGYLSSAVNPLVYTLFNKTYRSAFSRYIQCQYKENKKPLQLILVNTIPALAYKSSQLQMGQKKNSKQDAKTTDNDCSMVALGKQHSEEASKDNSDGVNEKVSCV

Row | Structure (SMILES) | functional activity at HTR2C (HTR2C) | other results
1 | Cn1ccc2cc3c(cc21)CCN3C(=O)Nc1cccnc1 [SB206553] |  | cell surface expression in Ser-receptors versus Cys-receptors [1]: greater cell surface expression; resensitization in Ser-receptors versus Cys-receptors [1]: more rapid resensitization
2 | CN(C)CCCN1c2ccccc2Sc2ccc(Cl)cc21 [chlorpromazine] | neutral antagonists | 
3 | Cc1nc2n(c(=O)c1CCN1CCC(c3noc4cc(F)ccc34)CC1)CCCC2 [risperidone] | potent inverse agonists | 
4 | O=C1NCCN1CCN1CCC(c2cn(-c3ccc(F)cc3)c3ccc(Cl)cc23)CC1 [sertindole] | potent inverse agonists | functional activity at HTR2A (HTR2A): potent inverse agonists
5 | O=C(CCCN1CCC2(CC1)C(=O)NCN2c1ccccc1)c1ccc(F)cc1 [spiperone] | neutral antagonists | 
6 | CSc1ccc2c(c1)N(CCC1CCCCN1C)c1ccccc1S2 (stereo not drawn) [thioridazine] | neutral antagonists | 
7 | CN1CCN(CC/C=C2/c3ccccc3Sc3ccc(S(=O)(=O)N(C)C)cc32)CC1 [thiothixene] | neutral antagonists | 
